Data from PubChem BioAssay (NCI).
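These data come from cells grown in 96-well plates and exposed to compound for 48 hours at five concentrations. GI50 is the concentration that inhibits growth by half. TGI marks complete inhibition of growth.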

Key:
Assay in all cases: NCI tumour cell line growth inhibition, 48 h
EKVX NSCLC = system: EKVX NSCLC
COLO 205 colon = system: COLO 205 colon
NCI-H23 lung = system: NCI-H23 lung
RPMI-8226 leukemia = system: RPMI-8226 leukemia
MALME-3M melanoma = system: MALME-3M melanoma
UACC-257 melanoma = system: UACC-257 melanoma
HCT-15 colon = system: HCT-15 colon
MDA-MB-435 = system: MDA-MB-435
CAKI-1 renal = system: CAKI-1 renal
BT-549 breast = system: BT-549 breast
NCI-H460 lung = system: NCI-H460 lung
786-0 renal = system: 786-0 renal
SF-268 CNS = system: SF-268 CNS
SK-MEL-28 melanoma = system: SK-MEL-28 melanoma
NCI-H226 lung = system: NCI-H226 lung
UO-31 renal = system: UO-31 renal
CCRF-CEM leukemia = system: CCRF-CEM leukemia
SW-620 colon = system: SW-620 colon
DU-145 prostate = system: DU-145 prostate
HL-60(TB) leukemia = system: HL-60(TB) leukemia
ACHN renal = system: ACHN renal
NCI/ADR-RES ovarian = system: NCI/ADR-RES ovarian
HOP-92 NSCLC = system: HOP-92 NSCLC
HS 578T breast = system: HS 578T breast
A549 NSCLC = system: A549 NSCLC
SK-OV-3 ovarian = system: SK-OV-3 ovarian
SN12C renal = system: SN12C renal
M14 melanoma = system: M14 melanoma
TK-10 renal = system: TK-10 renal
SK-MEL-2 melanoma = system: SK-MEL-2 melanoma
HT29 colon = system: HT29 colon
MCF7 breast = system: MCF7 breast
PC-3 prostate = system: PC-3 prostate
SNB-75 CNS = system: SNB-75 CNS
LOX IMVI melanoma = system: LOX IMVI melanoma
SF-539 CNS = system: SF-539 CNS
HCC-2998 colon = system: HCC-2998 colon
SNB-19 CNS = system: SNB-19 CNS
SR leukemia = system: SR leukemia
K-562 leukemia = system: K-562 leukemia
IGROV1 ovarian = system: IGROV1 ovarian
HOP-62 NSCLC = system: HOP-62 NSCLC
HCT-116 colon = system: HCT-116 colon
UACC-62 melanoma = system: UACC-62 melanoma
T-47D breast = system: T-47D breast
U251 CNS = system: U251 CNS
KM12 colon = system: KM12 colon
MDA-MB-231 breast = system: MDA-MB-231 breast
SF-295 CNS = system: SF-295 CNS
RXF 393 renal = system: RXF 393 renal
SK-MEL-5 melanoma = system: SK-MEL-5 melanoma
OVCAR-8 ovarian = system: OVCAR-8 ovarian
OVCAR-4 ovarian = system: OVCAR-4 ovarian
OVCAR-5 ovarian = system: OVCAR-5 ovarian
NCI-H522 lung = system: NCI-H522 lung
MOLT-4 leukemia = system: MOLT-4 leukemia
A498 renal = system: A498 renal

O=C(NNc1nc2cc(F)ccc2n2c(CN3CCC(O)C3)ccc12)c1cnccn1 (stereo not drawn)
GI50 (EKVX NSCLC): 449 nM
TGI (EKVX NSCLC): > 100000 nM
GI50 (COLO 205 colon): 406 nM
TGI (COLO 205 colon): > 100000 nM
GI50 (NCI-H23 lung): 1100 nM
TGI (NCI-H23 lung): > 100000 nM
GI50 (RPMI-8226 leukemia): 747 nM
TGI (RPMI-8226 leukemia): > 100000 nM
GI50 (MALME-3M melanoma): 1570 nM
TGI (MALME-3M melanoma): > 100000 nM
GI50 (UACC-257 melanoma): 1710 nM
TGI (UACC-257 melanoma): 7530 nM
GI50 (HCT-15 colon): 148 nM
TGI (HCT-15 colon): > 100000 nM
GI50 (MDA-MB-435): 1580 nM
TGI (MDA-MB-435): > 100000 nM
GI50 (CAKI-1 renal): 515 nM
TGI (CAKI-1 renal): > 100000 nM
GI50 (BT-549 breast): 327 nM
TGI (BT-549 breast): 9350 nM
GI50 (NCI-H460 lung): 315 nM
TGI (NCI-H460 lung): > 31600 nM
GI50 (786-0 renal): 308 nM
TGI (786-0 renal): > 22800 nM
GI50 (SF-268 CNS): 744 nM
TGI (SF-268 CNS): > 100000 nM
GI50 (SK-MEL-28 melanoma): 795 nM
TGI (SK-MEL-28 melanoma): > 100000 nM
GI50 (NCI-H226 lung): 920 nM
TGI (NCI-H226 lung): > 63400 nM
GI50 (UO-31 renal): 97.2 nM
TGI (UO-31 renal): 10100 nM
GI50 (CCRF-CEM leukemia): 347 nM
TGI (CCRF-CEM leukemia): > 100000 nM
GI50 (SW-620 colon): 973 nM
TGI (SW-620 colon): > 100000 nM
GI50 (DU-145 prostate): 981 nM
TGI (DU-145 prostate): > 100000 nM
GI50 (HL-60(TB) leukemia): 622 nM
TGI (HL-60(TB) leukemia): 6360 nM
GI50 (ACHN renal): 217 nM
TGI (ACHN renal): 36200 nM
GI50 (NCI/ADR-RES ovarian): 330 nM
TGI (NCI/ADR-RES ovarian): > 35500 nM
GI50 (HOP-92 NSCLC): 590 nM
TGI (HOP-92 NSCLC): > 100000 nM
GI50 (HS 578T breast): 8660 nM
TGI (HS 578T breast): > 100000 nM
GI50 (A549 NSCLC): 555 nM
TGI (A549 NSCLC): > 100000 nM
GI50 (SK-OV-3 ovarian): 858 nM
TGI (SK-OV-3 ovarian): > 28900 nM
GI50 (SN12C renal): 953 nM
TGI (SN12C renal): > 100000 nM
TGI (M14 melanoma): 1080 nM
GI50 (TK-10 renal): 921 nM
TGI (TK-10 renal): > 100000 nM
GI50 (SK-MEL-2 melanoma): 4090 nM
TGI (SK-MEL-2 melanoma): > 100000 nM
GI50 (HT29 colon): 512 nM
TGI (HT29 colon): > 100000 nM
GI50 (MCF7 breast): 725 nM
TGI (MCF7 breast): > 100000 nM
GI50 (PC-3 prostate): 790 nM
TGI (PC-3 prostate): > 100000 nM
GI50 (SNB-75 CNS): 1960 nM
TGI (SNB-75 CNS): > 30400 nM
GI50 (LOX IMVI melanoma): 417 nM
TGI (LOX IMVI melanoma): 6160 nM
GI50 (SF-539 CNS): 763 nM
TGI (SF-539 CNS): > 100000 nM
GI50 (HCC-2998 colon): 738 nM
TGI (HCC-2998 colon): > 100000 nM
GI50 (SNB-19 CNS): 1000 nM
TGI (SNB-19 CNS): > 100000 nM
GI50 (SR leukemia): 389 nM
TGI (SR leukemia): > 21800 nM
GI50 (K-562 leukemia): 564 nM
TGI (K-562 leukemia): > 100000 nM
GI50 (IGROV1 ovarian): 679 nM
TGI (IGROV1 ovarian): > 100000 nM
GI50 (HOP-62 NSCLC): 429 nM
TGI (HOP-62 NSCLC): > 30600 nM
GI50 (HCT-116 colon): 87.6 nM
TGI (HCT-116 colon): > 35100 nM
GI50 (UACC-62 melanoma): 408 nM
TGI (UACC-62 melanoma): 84400 nM
GI50 (T-47D breast): 1190 nM
TGI (T-47D breast): > 100000 nM
GI50 (U251 CNS): 470 nM
TGI (U251 CNS): > 100000 nM
GI50 (KM12 colon): 573 nM
TGI (KM12 colon): > 100000 nM
GI50 (MDA-MB-231 breast): 941 nM
TGI (MDA-MB-231 breast): > 100000 nM
GI50 (SF-295 CNS): 421 nM
TGI (SF-295 CNS): > 100000 nM
GI50 (RXF 393 renal): 946 nM
TGI (RXF 393 renal): > 40500 nM
GI50 (SK-MEL-5 melanoma): 1000 nM
TGI (SK-MEL-5 melanoma): 8290 nM
GI50 (OVCAR-8 ovarian): 439 nM
TGI (OVCAR-8 ovarian): > 44500 nM
GI50 (OVCAR-4 ovarian): 676 nM
TGI (OVCAR-4 ovarian): > 100000 nM
GI50 (OVCAR-5 ovarian): 1830 nM
TGI (OVCAR-5 ovarian): > 100000 nM
GI50 (NCI-H522 lung): 1130 nM
TGI (NCI-H522 lung): 14700 nM
GI50 (MOLT-4 leukemia): 489 nM
TGI (MOLT-4 leukemia): > 51300 nM
GI50 (A498 renal): 2040 nM
TGI (A498 renal): 8910 nM
